# Reference: patent publication US10414797B2, “Gelatinase inhibitors and use thereof” (Iproteos S.L, priority 2015, dated 2019)
# Where a SMILES comes first, the peptide text is derived from it. [ ]: non-standard residue; d: D form. The star is where a group is joined. ξ: configuration not given here. Pro(trans-4-F) = O=C(O)[C@@H]1C[C@@H](F)CN1; NMeW = CN[C@@H](Cc1c[nH]c2ccccc12)C(=O)O; Benzoyl(3,5-F2) = O=C(c1cc(F)cc(F)c1)*; NMeIle(3ξ) = CCC(C)[C@H](NC)C(=O)O; NMeF = CN[C@@H](Cc1ccccc1)C(=O)O; NMeQ = CN[C@@H](CCC(N)=O)C(=O)O; NMeL = CN[C@@H](CC(C)C)C(=O)O; NMeA = CN[C@@H](C)C(=O)O; Dab = NCC[C@H](N)C(=O)O; Hexanoyl = CCCCCC(=O)*; Butyryl = CCCC(=O)*; Bz = O=C(c1ccccc1)*; NHOH = ON*
# Biological target: MMP-9
# Sequence (P14780 107-707 limits assumed): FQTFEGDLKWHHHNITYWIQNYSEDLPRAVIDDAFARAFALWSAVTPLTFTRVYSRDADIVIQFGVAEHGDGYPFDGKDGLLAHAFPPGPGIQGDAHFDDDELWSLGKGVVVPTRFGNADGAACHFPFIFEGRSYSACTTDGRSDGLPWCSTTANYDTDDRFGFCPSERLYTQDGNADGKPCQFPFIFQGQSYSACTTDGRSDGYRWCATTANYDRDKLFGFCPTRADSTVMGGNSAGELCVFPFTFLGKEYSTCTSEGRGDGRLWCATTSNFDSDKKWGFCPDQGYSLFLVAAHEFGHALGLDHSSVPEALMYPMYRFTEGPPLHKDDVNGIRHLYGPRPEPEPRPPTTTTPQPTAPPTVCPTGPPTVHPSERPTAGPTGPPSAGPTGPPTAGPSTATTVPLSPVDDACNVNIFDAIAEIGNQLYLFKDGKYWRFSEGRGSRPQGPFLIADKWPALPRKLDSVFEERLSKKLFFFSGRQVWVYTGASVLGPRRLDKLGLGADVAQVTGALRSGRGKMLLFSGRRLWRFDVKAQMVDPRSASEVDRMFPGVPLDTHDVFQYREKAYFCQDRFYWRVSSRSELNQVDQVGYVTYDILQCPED
# Assay: MMP-9 inhibition assay (fluorimetric, DQ gelatin substrate)
# Type: biochemical
# Conditions: recombinant MMP-9 (Merck-Millipore for examples 1 to 9 and comparative examples; Enzo for examples 10 to 16), DQ gelatin 50 μg/mL, 4 hours at room temperature, pH 7.6
# Description: (§1) All the experiments were done in 1× reaction buffer, which was obtained from a 10× reaction buffer solution. The content of the 10× reaction buffer was: 50 mL of 0.5 M Tris-HCl, 1.5 M NaCl, 50 mM CaCl2 and 2 mM sodium azide at pH 7.6. To obtain the 1× reaction buffer 4 mL of the 10× reaction buffer were diluted in 36 mL of H2O.
# (§2) Recombinant MMP-9 expressed was obtained from Merck-Millipore (catalog number PF140-5UG, used in examples 1 to 9 and comparative examples) and Enzo (catalog number-SE360-0010, used in examples 10 to 16). DQ gelatin from pig skin fluorescein conjugated (MMP-9 substrate) was obtained from Life Technologies (catalog number E12055).
# (§3) Preparation of the MMP-9 for the activity assay: MMP-9 was provided as a stock solution (0.1 mg/mL). The enzyme was diluted in 1× reaction buffer to a final concentration of 5 μg/mL.
# (§4) Preparation of the DQ gelatin (substrate) solution for the activity assay: the solid form of the substrate was dissolved in water in order to obtain a stock solution of 1 mg/mL.
# (§5) Procedure: The enzymatic assays were performed in 96-well microtiter plate, which allowed simultaneous monitoring of multiple reactions. For each reaction, 84.6 μL of 1× reaction buffer (pH 7.6), […] of MMP-9 (final concentration 85 ng/mL) and 2 μL of the corresponding new compound were added to each well. A stock solution of new compound was prepared in DMSO (100 mM), and dilutions were prepared from this stock solution with DMSO. Finally, to the mixture contained in each well 10 μL of the substrate were added (final concentration 50 μg/mL). The reaction was incubated for 4 hours at room temperature in an orbital shaker (100 rpm).
# (§6) The inhibitory activity of the new compound was measured fluorimetrically. The excitation and emission wavelengths were 483 and 525 nm, respectively.
# (§7) Inhibitory activity at several concentration points (ranging from 100 pM to 200 μM MMP) were measured for each compound. The inhibitory activity on MMP-2 and MMP-9 was calculated according to eq 1. For each new compound, the fluorescence in the presence (a) and in the absence (b) of the corresponding MMP was measured. The maximum fluorescence (0% inhibitory activity) was obtained from a sample of the corresponding MMP in the absence of inhibitory compounds. To estimate the inhibitory potency of the novel compounds, activities were plotted against the log concentration of the compound, adjusting to a sigmoid curve using GraphPad Prism software, and the IC50 value, defined as the concentration of compound required to inhibit 50% of the corresponding MMP activity, was determined from resulting curve.
# (§8) a corresponds to fluorescence intensity in the presence of substrate+test compound+MMP
# (§9) b corresponds to the fluorescence intensity in the presence of substrate+tested compound
# (§10) c corresponds to the fluorescence intensity in the presence of substrate+MMP
# (§11) d corresponds to the fluorescence intensity of the presence of substrate
row,IC50 [µM],Compound
1,1.26,"CCC(C)[C@@H](C(=O)N[C@@H](CCNC(=O)c1ccc(F)cc1)C(=O)NO)N(C)C(=O)[C@@H]1CCCN1C(C)=O (stereo partly drawn) [Example 1, (2S)-1-acetyl-N-[(1S)-1-[[(1S)-3-[(4-fluorobenzoyl)amino]-1-(hydroxycarbamoyl)propyl]carbamoyl]-2-methyl-butyl]-N-methyl-pyrrolidine-2-carboxamide]"
2,0.046,"CCCC(=O)N(C)[C@@H](Cc1c[nH]c2ccccc12)C(=O)N(C)[C@@H](CC(C)C)C(=O)N1CCC[C@H]1C(=O)N(C)[C@H](C(=O)N[C@@H](CCNC(=O)c1cc(F)cc(F)c1)C(=O)NO)C(C)CC (stereo partly drawn) [Example 14, (2S)-1-[(2S)-2-[[(2S)-2-[butanoyl(methyl)amino]-3-(1H-indol-3-yl)propanoyl]-methyl-amino]-4-methyl-pentanoyl]-N-[(1S)-1-[[(1S)-3-[(3,5-difluorobenzoyl)amino]-1-(hydroxycarbamoyl)propyl]carbamoyl]-2-methyl-butyl]-N-methyl-pyrrolidine-2-carboxamide] (Butyryl-[NMeW][NMeL]P[NMeIle(3ξ)][Dab](Benzoyl(3,5-F2))-{NHOH})"
3,0.301,"CCC(C)[C@@H](C(=O)N[C@@H](CCNC(=O)c1cc(F)cc(F)c1)C(=O)NO)N(C)C(=O)[C@@H]1CCCN1C(C)=O (stereo partly drawn) [Example 2, (2S)-1-acetyl-N-[(1S)-1-[[(1S)-3-[(3,5-difluorobenzoyl)amino]-1-(hydroxycarbamoyl)propyl]carbamoyl]-2-methyl-butyl]-N-methyl-pyrrolidine-2-carboxamide]"
4,0.601,"CCC(C)[C@@H](C(=O)N[C@@H](CCNC(=O)c1cc(F)cc(F)c1)C(=O)NO)N(C)C(=O)[C@@H]1CCCN1C(=O)CC(C)C (stereo partly drawn) [Example 5, (2S)—N-[(1S)-1-[[(1S)-3-[(3,5-difluorobenzoyl)amino]-1-(hydroxycarbamoyl)propyl]carbamoyl]-2-methyl-butyl]-N-methyl-1-(3-methylbutanoyl)pyrrolidine-2-carboxamide]"
5,0.506,"CCC(C)[C@@H](C(=O)N[C@@H](CCNC(=O)c1cc(F)cc(F)c1)C(=O)NO)N(C)C(=O)[C@@H]1CCCN1C(=O)CCCOc1ccccc1 (stereo partly drawn) [Example 9, (2S)—N-[(1S)-1-[[(1S)-3-[(3,5-difluorobenzoyl)amino]-1-(hydroxycarbamoyl)propyl]carbamoyl]-2-methyl-butyl]-N-methyl-1-(4-phenoxybutanoyl)pyrrolidine-2-carboxamide]"

# Continued, compound first:
row,Compound,IC50 [µM]
1,"CCC(C)[C@@H](C(=O)N[C@@H](CCNC(=O)c1cc(F)cc(F)c1)C(=O)NO)N(C)C(=O)[C@@H]1CC(F)(F)CN1C(=O)CCCOc1ccccc1 (stereo partly drawn) [Example 10, (2S)—N-[(1S)-1-[[(1S)-3-[(3,5-difluorobenzoyl)amino]-1-(hydroxycarbamoyl)propyl]carbamoyl]-2-methyl-butyl]-4,4-difluoro-N-methyl-1-(4-phenoxybutanoyl)pyrrolidine-2-carboxamide]",0.223
2,"CCC(C)[C@@H](C(=O)N[C@@H](CCNC(=O)c1cc(F)cc(F)c1)C(=O)NO)N(C)C(=O)[C@@H]1CCCN1C(=O)CCN(C)C(C)=O (stereo partly drawn) [Example 13, (2S)-1-[3-[acetyl(methyl)amino]propanoyl]-N-[(1S)-1-[[(1S)-3-[(3,5-difluorobenzoyl)amino]-1-(hydroxycarbamoyl)propyl]carbamoyl]-2-methyl-butyl]-N-methyl-pyrrolidine-2-carboxamide]",0.339
3,"CC(=O)N1CCC[C@H]1C(=O)N[C@@H](CCC(N)=O)C(=O)N[C@@H](Cc1c[nH]c2ccccc12)C(=O)NO [Example C17, (2S)-2-[[(2S)-1-acetylpyrrolidine-2-carbonyl)amino]-N-[(1S)-2-(hydroxyamino)-1-(1H-indol-3-ylmethyl)-2-oxo-ethyl]pentanediamide, reference compound] (Ac-Pro-Gln-Trp-{NHOH})",3500
4,"CC(=O)N1CCC[C@H]1C(=O)N(C)[C@@H](CCC(N)=O)C(=O)N[C@@H](Cc1c[nH]c2ccccc12)C(=O)NO [Example C20, (2S)-2-[[(2S)-1-acetylpyrrolidine-2-carbonyl]-methyl-amino]-N-[(1S)-2-(hydroxyamino)-1-(1H-indol-3-ylmethyl)-2-oxo-ethyl]pentanediamide, reference compound] (Ac-Pro-[NMeQ]-Trp-{NHOH})",22

# Biological target: MMP-9 (Homo sapiens, UniProt P14780)
# Sequence (P14780 107-707 limits assumed): as above
# Assay: as above
# Type: biochemical
# Conditions: recombinant MMP-9 (Merck-Millipore for examples 1 to 9 and comparative examples; Enzo for examples 10 to 16), DQ gelatin 50 μg/mL, 4 hours at room temperature, pH 7.6
# Description: as §1, §2, §3, §4, §5, §6, §7, §8, §9, §10, §11
row,Compound,IC50 [nM]
1,"CCCCCC(=O)N1CC(F)(F)C[C@H]1C(=O)N(C)[C@H](C(=O)N[C@@H](CCNC(=O)c1cc(F)cc(F)c1)C(=O)NO)C(C)CC (stereo partly drawn) [Example 7, (2S)—N-[(1S)-1-[[(1S)-3-[(3,5-difluorobenzoyl)amino]-1-(hydroxycarbamoyl)propyl]carbamoyl]-2-methyl-butyl]-4,4-difluoro-1-hexanoyl-N-methyl-pyrrolidine-2-carboxamide]",713
2,"CCCCCC(=O)N1CCC[C@H]1C(=O)N(C)[C@H](C(=O)N[C@@H](CCNC(=O)c1cc(F)cc(F)c1)C(=O)NO)C(C)CC (stereo partly drawn) [Example 3, (2S)—N-[(1S)-1-[[(1S)-3-[(3,5-difluorobenzoyl)amino]-1-(hydroxycarbamoyl)propyl]carbamoyl]-2-methyl-butyl]-1-hexanoyl-N-methyl-pyrrolidine-2-carboxamide]",395
3,"CCCC(=O)N1CCC[C@H]1C(=O)N(C)[C@H](C(=O)N[C@@H](CCNC(=O)c1cc(F)cc(F)c1)C(=O)NO)C(C)CC (stereo partly drawn) [Example 4, (2S)-1-butanoyl-N-[(1S)-1-[[(1S)-3-[(3,5-difluorobenzoyl)amino]-1-(hydroxycarbamoyl)propyl]carbamoyl]-2-methyl-butyl]-N-methyl-pyrrolidine-2-carboxamide]",235
4,"CCCCCC(=O)N1CCC[C@H]1C(=O)N(C)[C@H](C(=O)N[C@@H](CCNC(=O)c1ccccc1)C(=O)NO)C(C)CC (stereo partly drawn) [Example 15, (2S)—N-[(1S)-1-[[(1S)-3-benzamido-1-(hydroxycarbamoyl)propyl]carbamoyl]-2-methyl-butyl]-N-methyl-1-hexanoyl-pyrrolidine-2-carboxamide] (Hexanoyl-Pro-[NMeIle(3ξ)]-[Dab](Bz)-{NHOH})",702
5,"CCC(C)[C@@H](C(=O)N[C@@H](CCNC(=O)c1cc(F)cc(F)c1)C(=O)NO)N(C)C(=O)[C@@H]1CCCN1C(=O)[C@H](Cc1ccccc1)N(C)C(C)=O (stereo partly drawn) [Example 11, (2 S)-1-[(2S)-2-[acetyl(methyl)amino]-3-phenyl-propanoyl]-N-[(1S)-1-[[(1S)-3-[(3,5-difluorobenzoyl)amino]-1-(hydroxycarbamoyl)propyl]carbamoyl]-2-methyl-butyl]-N-methyl-pyrrolidine-2-carboxamide] (Ac-[NMeF]P[NMeIle(3ξ)][Dab](Benzoyl(3,5-F2))-{NHOH})",71
6,"CCC(C)[C@@H](C(=O)N[C@@H](CCNC(=O)c1cc(F)cc(F)c1)C(=O)NO)N(C)C(=O)[C@@H]1CCCN1C(=O)[C@H](C)N(C)C(C)=O (stereo partly drawn) [Example 12, (2 S)-1-[(2S)-2-[acetyl(methyl)amino]propanoyl]-N-[(1S)-1-[[(1S)-3-[(3,5-difluorobenzoyl)amino]-1-(hydroxycarbamoyl)propyl]carbamoyl]-2-methyl-butyl]-N-methyl-pyrrolidine-2-carboxamide] (Ac-[NMeA]P[NMeIle(3ξ)][Dab](Benzoyl(3,5-F2))-{NHOH})",136
7,"CCCCCC(=O)N1C[C@H](F)C[C@H]1C(=O)N(C)[C@H](C(=O)N[C@@H](CCNC(=O)c1ccccc1)C(=O)NO)C(C)CC (stereo partly drawn) [Example 16, (2S,4R)—N-[(1S)-1-[[(1S)-3-benzamido-1-(hydroxycarbamoyl)propyl]carbamoyl]-2-methyl-butyl]-4-fluoro-N-methyl-1-hexanoyl-pyrrolidine-2-carboxamide] (Hexanoyl-[Pro(trans-4-F)]-[NMeIle(3ξ)]-[Dab](Bz)-{NHOH})",10
8,"CCCCCCCC(=O)N1CCC[C@H]1C(=O)N(C)[C@H](C(=O)N[C@@H](CCNC(=O)c1cc(F)cc(F)c1)C(=O)NO)C(C)CC (stereo partly drawn) [Example 6, (2S)—N-[(1S)-1-[[(1S)-3-[(3,5-difluorobenzoyl)amino]-1-(hydroxycarbamoyl)propyl]carbamoyl]-2-methyl-butyl]-N-methyl-1-octanoyl-pyrrolidine-2-carboxamide]",733
